Test results from ChEMBL document CHEMBL5579889, “Structure-Based Design and Development of Phosphine Oxides as a Novel Chemotype for Antibiotics that Dysregulate Bacterial ClpP Proteases” (J Med Chem, 2024).
≈ marks a conversion by molar mass, not a printed value. Calls of active or inactive are those of the source. The calls are words filed in the database; no cut-off is given here.

Key:
Neisseria meningitidis [1] = assay: Antibacterial activity against Neisseria meningitidis NGPB24 measured after 16 to 18 hrs by OD based assay; type: functional; settings: time 16-18 hrs
Neisseria meningitidis [2] = assay: Antibacterial activity against Neisseria meningitidis BZ133 measured after 16 to 18 hrs by OD based assay; type: functional; settings: time 16-18 hrs
Neisseria meningitidis [3] = assay: Antibacterial activity against Neisseria meningitidis EG329 measured after 16 to 18 hrs by OD based assay; type: functional; settings: time 16-18 hrs
Neisseria gonorrhoeae [4] = assay: Antibacterial activity against Neisseria gonorrhoeae WHO Y measured after 16 to 18 hrs by OD based assay; type: functional; settings: time 16-18 hrs
Neisseria gonorrhoeae [5] = assay: Antibacterial activity against Neisseria gonorrhoeae WHO P measured after 16 to 18 hrs by OD based assay; type: functional; settings: time 16-18 hrs
[6] = target: T1, ATP-dependent Clp protease proteolytic subunit (Neisseria gonorrhoeae, UniProt Q5F914); assay: Binding affinity to His-tagged recombinant Neisseria gonorrhoeae ClpP extracted from Escherichia coli SG1146(DE3) using casein as substrate assessed as apparent dissociation constant incubated upto 120 mins by SDS-PAGE analysis; settings: read-out: Kd(app)
Neisseria gonorrhoeae [7] = assay: Antibacterial activity against Neisseria gonorrhoeae WHO L measured after 16 to 18 hrs by OD based assay; type: functional; settings: time 16-18 hrs
[8] = target: T2, ATP-dependent Clp protease proteolytic subunit (Staphylococcus aureus (strain NCTC 8325)) (UniProt Q2G036); assay: Activation of N-terminal His-tagged recombinant Staphylococcus aureus ClpP expressed in Escherichia coli SG1146(DE3) assessed as degradation of casein-FITC at 100 uM preincubated for 10 mins followed by casein addition measured for over 100 mins by fluorescence based assay; settings: time > 110.0 min
T2 sequence (whole entry): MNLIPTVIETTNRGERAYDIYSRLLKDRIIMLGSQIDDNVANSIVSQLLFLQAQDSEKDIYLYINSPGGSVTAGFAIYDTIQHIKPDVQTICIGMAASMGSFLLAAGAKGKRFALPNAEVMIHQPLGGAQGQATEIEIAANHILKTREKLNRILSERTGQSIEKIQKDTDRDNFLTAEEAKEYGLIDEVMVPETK

Neisseria gonorrhoeae [9] = assay: Antibacterial activity against Neisseria gonorrhoeae WHO K measured after 16 to 18 hrs by OD based assay; type: functional; settings: time 16-18 hrs
Neisseria gonorrhoeae [10] = assay: Antibacterial activity against Neisseria gonorrhoeae FA19 measured after 16 to 18 hrs by OD based assay; type: functional; settings: time 16-18 hrs
Neisseria meningitidis [11] = assay: Antibacterial activity against Neisseria meningitidis NGF26 measured after 16 to 18 hrs by OD based assay; type: functional; settings: time 16-18 hrs
Neisseria meningitidis [12] = assay: Antibacterial activity against Neisseria meningitidis 88/03415 measured after 16 to 18 hrs by OD based assay; type: functional; settings: time 16-18 hrs
Neisseria gonorrhoeae [13] = assay: Antibacterial activity against Neisseria gonorrhoeae WHO X measured after 16 to 18 hrs by OD based assay; type: functional; settings: time 16-18 hrs
[14] = target: T3, ATP-dependent Clp protease proteolytic subunit (Escherichia coli (strain K12), UniProt P0A6G7); assay: Binding affinity to His-tagged recombinant Escherichia coli ClpP extracted from Escherichia coli SG1146(DE3) using casein as substrate assessed as apparent dissociation constant incubated upto 120 mins by SDS-PAGE analysis; settings: read-out: Kd(app)
Neisseria gonorrhoeae [15] = assay: Antibacterial activity against Neisseria gonorrhoeae WHO V measured after 16 to 18 hrs by OD based assay; type: functional; settings: time 16-18 hrs
[16] = target: ATP-dependent Clp protease proteolytic subunit, mitochondrial (Homo sapiens) (UniProt Q16740); assay: Activation of N-terminal His-tagged recombinant human ClpP expressed in Escherichia coli SG1146(DE3) assessed as degradation of casein-FITC at 100 uM preincubated for 10 mins followed by casein addition measured for over 100 mins by fluorescence based assay; settings: time > 110.0 min
Neisseria gonorrhoeae [17] = assay: Antibacterial activity against Neisseria gonorrhoeae MS11 measured after 16 to 18 hrs by OD based assay; type: functional; settings: time 16-18 hrs
Neisseria meningitidis [18] = assay: Antibacterial activity against Neisseria meningitidis NG144/82 measured after 16 to 18 hrs by OD based assay; type: functional; settings: time 16-18 hrs
Neisseria meningitidis [19] = assay: Antibacterial activity against Neisseria meningitidis BZ169 measured after 16 to 18 hrs by OD based assay; type: functional; settings: time 16-18 hrs
[20] = target: T1, ATP-dependent Clp protease proteolytic subunit; assay: Activation of N-terminal His-tagged recombinant Neisseria gonorrhoeae ClpP expressed in Escherichia coli SG1146(DE3) assessed as degradation of casein-FITC preincubated for 10 mins followed by casein addition measured for over 100 mins by fluorescence based assay
Neisseria gonorrhoeae [21] = assay: Antibacterial activity against Neisseria gonorrhoeae WHO M measured after 16 to 18 hrs by OD based assay; type: functional; settings: time 16-18 hrs
Streptococcus pneumoniae = assay: Activation of recombinant Streptococcus pneumoniae ClpP extracted from Escherichia coli SG1146(DE3) assessed as degradation of casein-FITC at 100 uM preincubated for 10 mins followed by casein addition measured for over 100 mins by fluorescence based assay; settings: time > 110.0 min
Neisseria meningitidis [22] = assay: Antibacterial activity against Neisseria meningitidis H44/76 harboring deltaclpP measured after 16 to 18 hrs by OD based assay; type: functional; settings: time 16-18 hrs
Neisseria gonorrhoeae [23] = assay: Antibacterial activity against Neisseria gonorrhoeae WHO N measured after 16 to 18 hrs by OD based assay; type: functional; settings: time 16-18 hrs
Neisseria meningitidis [24] = assay: Antibacterial activity against Neisseria meningitidis AK50 measured after 16 to 18 hrs by OD based assay; type: functional; settings: time 16-18 hrs
[25] = Cytotoxicity against wild-type HEK293-T-REx cells assessed as cell viability upto 100 uM incubated for 3 days by AlamarBlue assay; type: toxicity, cell-based; settings: human, 72 h, time 3 day
[26] = target: T3, ATP-dependent Clp protease proteolytic subunit; assay: Activation of N-terminal His-tagged recombinant Escherichia coli ClpP expressed in Escherichia coli SG1146(DE3) assessed as degradation of casein-FITC preincubated for 10 mins followed by casein addition measured for over 100 mins by fluorescence based assay
Neisseria gonorrhoeae [27] = assay: Antibacterial activity against Neisseria gonorrhoeae WHO G measured after 16 to 18 hrs by OD based assay; type: functional; settings: time 16-18 hrs
Neisseria meningitidis [28] = assay: Antibacterial activity against wild-type Neisseria meningitidis H44/76 measured after 16 to 18 hrs by OD based assay; type: functional; settings: time 16-18 hrs
Neisseria meningitidis [29] = assay: Antibacterial activity against Neisseria meningitidis SWZ107 measured after 16 to 18 hrs by OD based assay; type: functional; settings: time 16-18 hrs
Neisseria gonorrhoeae [30] = assay: Antibacterial activity against Neisseria gonorrhoeae WHO Z measured after 16 to 18 hrs by OD based assay; type: functional; settings: time 16-18 hrs
[31] = target: ATP-dependent Clp protease proteolytic subunit (Neisseria gonorrhoeae) (UniProt Q5F914); assay: Activation of N-terminal His-tagged recombinant Neisseria gonorrhoeae ClpP expressed in Escherichia coli SG1146(DE3) assessed as degradation of casein-FITC at 100 uM preincubated for 10 mins followed by casein addition measured for over 100 mins by fluorescence based assay; settings: time > 110.0 min
[32] = target: ATP-dependent Clp protease proteolytic subunit (Escherichia coli (strain K12)) (UniProt P0A6G7); assay: Activation of N-terminal His-tagged recombinant Escherichia coli ClpP expressed in Escherichia coli SG1146(DE3) assessed as degradation of casein-FITC at 100 uM preincubated for 10 mins followed by casein addition measured for over 100 mins by fluorescence based assay; settings: filed as activator, time > 110.0 min
ATP-dependent Clp protease proteolytic subunit (Escherichia coli (strain K12)), sequence (P0A6G7 whole entry): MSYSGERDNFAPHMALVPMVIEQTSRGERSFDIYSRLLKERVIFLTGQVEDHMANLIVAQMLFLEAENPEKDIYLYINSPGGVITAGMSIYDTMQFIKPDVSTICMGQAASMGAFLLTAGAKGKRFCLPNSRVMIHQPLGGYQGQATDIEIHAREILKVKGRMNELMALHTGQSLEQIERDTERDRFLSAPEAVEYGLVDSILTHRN

T3 sequence (P0A6G7 whole entry): as above
T1 sequence (Q5F914 whole entry): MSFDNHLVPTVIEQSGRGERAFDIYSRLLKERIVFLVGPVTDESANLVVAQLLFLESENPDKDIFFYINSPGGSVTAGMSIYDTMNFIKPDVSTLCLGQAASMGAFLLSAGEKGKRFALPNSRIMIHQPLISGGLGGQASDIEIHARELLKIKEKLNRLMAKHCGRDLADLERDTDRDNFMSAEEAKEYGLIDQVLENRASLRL
ATP-dependent Clp protease proteolytic subunit, mitochondrial (Homo sapiens), sequence (Q16740 whole entry): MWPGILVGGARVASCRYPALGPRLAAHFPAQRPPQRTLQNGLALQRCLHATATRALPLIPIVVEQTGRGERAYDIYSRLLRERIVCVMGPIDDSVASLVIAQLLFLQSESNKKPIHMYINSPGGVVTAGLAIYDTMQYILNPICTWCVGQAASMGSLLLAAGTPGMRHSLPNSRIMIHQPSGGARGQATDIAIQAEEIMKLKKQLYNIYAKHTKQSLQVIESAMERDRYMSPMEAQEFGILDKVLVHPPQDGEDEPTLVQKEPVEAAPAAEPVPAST
ATP-dependent Clp protease proteolytic subunit (Neisseria gonorrhoeae), sequence (Q5F914 whole entry): as the sequence (Q5F914 whole entry) above

In the case of `CC(C)(C(=O)NCCSc1ccccc1C(F)(F)F)P(=O)(c1ccc(C(F)(F)F)cn1)c1ccc(C(F)(F)F)cn1`, the MIC (Neisseria meningitidis [1]) is reported as 25 µM (≈ 15.7 µg/mL), the MIC (Neisseria meningitidis [2]) is reported as 25 µM (≈ 15.7 µg/mL) and the MIC (Neisseria meningitidis [3]) is reported as 13.8 µM (≈ 8.69 µg/mL). It also gave an MIC (Neisseria gonorrhoeae [4]) of 3.1 µM (≈ 1.95 µg/mL), an MIC (Neisseria gonorrhoeae [5]) of 1.6 µM (≈ 1.01 µg/mL) and a Kd [6] of 0.69 µM. For the same compound, the MIC (Neisseria gonorrhoeae [7]) was 1.6 µM (≈ 1.01 µg/mL), the Activity [8] was “inactive” and the MIC (Neisseria gonorrhoeae [9]) was 1.6 µM (≈ 1.01 µg/mL). It also gave an MIC (Neisseria gonorrhoeae [10]) of 1.6 µM (≈ 1.01 µg/mL), an MIC (Neisseria meningitidis [11]) of 18.8 µM (≈ 11.8 µg/mL) and an MIC (Neisseria meningitidis [12]) of 18.8 µM (≈ 11.8 µg/mL). The MIC (Neisseria gonorrhoeae [13]) was 1.6 µM (≈ 1.01 µg/mL), the Kd [14] was 0.27 µM and the MIC (Neisseria gonorrhoeae [15]) was 3.1 µM (≈ 1.95 µg/mL). For the same compound, the Activity [16] was “inactive”, the MIC (Neisseria gonorrhoeae [17]) was 1.6 µM (≈ 1.01 µg/mL) and the MIC (Neisseria meningitidis [18]) was 18.8 µM (≈ 11.8 µg/mL). For the same compound, the MIC (Neisseria meningitidis [19]) was 18.8 µM (≈ 11.8 µg/mL), the EC50 [20] was 0.16 µM and the MIC (Neisseria gonorrhoeae [21]) was 1.6 µM (≈ 1.01 µg/mL). For the same compound, the Activity (Streptococcus pneumoniae) was “inactive”, the MIC (Neisseria meningitidis [22]) was 3.1 µM (≈ 1.95 µg/mL) and the MIC (Neisseria gonorrhoeae [23]) was 1.6 µM (≈ 1.01 µg/mL). For the same compound, the MIC (Neisseria meningitidis [24]) was 50 µM (≈ 31.5 µg/mL), the Activity [25] was “Non-Toxic” and the EC50 [26] was 0.2 µM. The MIC (Neisseria gonorrhoeae [27]) was 1.6 µM (≈ 1.01 µg/mL), the MIC (Neisseria meningitidis [28]) was 0.3 µM (≈ 0.189 µg/mL) and the MIC (Neisseria meningitidis [29]) was 123 µM (≈ 77.4 µg/mL). The MIC (Neisseria gonorrhoeae [30]) was 2.4 µM (≈ 1.51 µg/mL).

For `CC(C)(C(=O)NCCSc1ccccc1Br)P(=O)(c1ccc(C(F)(F)F)cc1)c1ccc(C(F)(F)F)cc1`, the Activity [8] was “inactive”, the Activity [16] was “inactive” and the EC50 [20] was 3.39 µM. The Activity (Streptococcus pneumoniae) was “inactive” and the EC50 [26] was 7.23 µM.

With `CC(C(=O)NCCSc1ccccc1C(F)(F)F)P(=O)(c1ccc(C(F)(F)F)cc1)c1ccc(C(F)(F)F)cc1` (stereo not drawn) the Activity [31] was “inactive”, the EC50 [26] was 4.45 µM and the Activity [32] was “Active”.

`CC(C)(C(=O)NCCSc1ccccc1C(F)(F)F)P(=O)(c1ccc(C(F)(F)F)cc1)c1ccc(C(F)(F)F)cc1` gave an EC50 [20] of 3.28 µM and an EC50 [26] of 4.51 µM.

With `CC(C(=O)NCCSc1ccccc1C(F)(F)F)P(=O)(c1ccc(C(F)(F)F)cn1)c1ccc(C(F)(F)F)cn1` (stereo not drawn) the Activity [8] was “inactive”, the Activity [16] was “inactive” and the EC50 [20] was 2.75 µM. The Activity (Streptococcus pneumoniae) was “inactive” and the EC50 [26] was 2.05 µM.

`CC(C)(C(=O)NCCSc1ccccc1Cl)P(=O)(c1ccc(C(F)(F)F)cc1)c1ccc(C(F)(F)F)cc1` showed an EC50 [20] of 1.58 µM and an EC50 [26] of 4.77 µM.
